# Structures can show the parent of a compound that is named as a salt.
# Biological target: T1, PDE4B (human recombinant) (Homo sapiens, UniProt Q07343)
# T1 construct: made in house
# Test: PDE4B inhibition, fluorescence polarisation (FP) and/or SPA assay
# Type: biochemical
# Settings: n=1 or average of 2 or more readings, accuracy ±about 0.5 log unit, read-out: PDE4B pIC50 (generally in FP assay) (±about 0.5) (converted)
# Excerpt: Human recombinant PDE4B, in particular the 2B splice variant thereof (HSPDE4B2B), is disclosed in WO 94/20079 and also M. M. McLaughlin et al., “A low Km, rolipram-sensitive, cAMP-specific phosphodiesterase from human brain: cloning and expression of cDNA, biochemical characterisation of recombinant protein, and tissue distribution of mRNA”, J. Biol. Chem., 1993, 268, 6470-6476. For example, in Example 1 of WO 94/20079, human recombinant PDE4B is described as being expressed in the PDE-deficient yeast Saccharomyces cerevisiae strain GL62, e.g. after induction by addition of 150 uM CuSO4, and 100,000×g supernatant fractions of yeast cell lysates are described for use in the harvesting of PDE4B enzyme.
# The ability of compounds to inhibit catalytic activity at PDE4B or 4D (human recombinant), PDE3 (from bovine aorta), PDE5 (human recombinant) or PDE6 (from bovine retina) can optionally be determined by Scintillation Proximity Assay (SPA) in a 96-well format.
# Test compounds (as a solution in DMSO, preferably about 2 microliter (ul) volume of DMSO solution) are preincubated at ambient temperature (room temperature, e.g. 19-23° C.) in Wallac Isoplates (code 1450-514) with PDE enzyme in 50 mM Tris-HCl buffer pH 7.5, 8.3 mM MgCl2, 1.7 mM EGTA, 0.05% (w/v) bovine serum albumin for 10-30 minutes (usually 30 minutes). The enzyme concentration is adjusted so that no more than 20% hydrolysis of the substrate defined below occurs in control wells without compound, during the incubation. For the PDE3, PDE4B and PDE4D assays, [5′,8-3H]Adenosine 3′,5′-cyclic phosphate (Amersham Pharmacia Biotech, code TRK.559; or Amersham Biosciences UK Ltd, Pollards Wood, Chalfont St Giles, Buckinghamshire HP8 4SP, UK) is added to give 0.05 uCi per well and about 10 nM final concentration. For the PDE5 and PDE6 assays, [8-^3H]Guanosine 3′,5′-cyclic phosphate (Amersham Pharmacia Biotech, code TRK.392) is added to give 0.05 uCi per well and about 36 nM final concentration. Plates containing assay mixture, preferably approx. 100 ul volume of assay mixture, are mixed on an orbital shaker for 5 minutes and incubated at ambient temperature for 1 hour. Phosphodiesterase SPA beads (Amersham Pharmacia Biotech, code RPNQ 0150) are added (about 1 mg per well) to terminate the assay. Plates are sealed and shaken and allowed to stand at ambient temperature for 35 minutes to 1 hour (preferably 35 minutes) to allow the beads to settle. Bound radioactive product is measured using a WALLAC TRILUX 1450 Microbeta scintillation counter. For inhibition curves, 10 concentrations (e.g. 1.5 nM-30 uM) of each compound are assayed. Curves are analysed using ActivityBase and XLfit (ID Business Solutions Limited, 2 Ocean Court, Surrey Research Park, Guildford, Surrey GU2 7QB, United Kingdom) Results are expressed as pIC50 values.
# The ability of compounds to inhibit catalytic activity at PDE4B (human recombinant) or PDE4D (human recombinant) can optionally be determined by IMAP Fluorescence Polarisation (FP) assay (IMAP Explorer kit, available from Molecular Devices Corporation, Sunnydale, Calif., USA; Molecular Devices code: R8062) in 384-well format.
# The IMAP FP assay is able to measure PDE activity in an homogenous, non-radioactive assay format. The FP assay uses the ability of immobilised trivalent metal cations, coated onto nanoparticles (tiny beads), to bind the phosphate group of FI-AMP that is produced on the hydrolysis of fluorescein-labelled (FI) cyclic adenosine mono-phosphate (FI-cAMP) to the non-cyclic FI-AMP form. […] Binding of FI-AMP product to the beads (coated with the immobilised trivalent cations) slows the rotation of the bound FI-AMP and leads to an increase in the fluorescence polarisation ratio of parallel to perpendicular light. Inhibition of the PDE reduces/inhibits this signal increase. […]
# T1 sequence (Q07343 1-564 isoform Q07343-2): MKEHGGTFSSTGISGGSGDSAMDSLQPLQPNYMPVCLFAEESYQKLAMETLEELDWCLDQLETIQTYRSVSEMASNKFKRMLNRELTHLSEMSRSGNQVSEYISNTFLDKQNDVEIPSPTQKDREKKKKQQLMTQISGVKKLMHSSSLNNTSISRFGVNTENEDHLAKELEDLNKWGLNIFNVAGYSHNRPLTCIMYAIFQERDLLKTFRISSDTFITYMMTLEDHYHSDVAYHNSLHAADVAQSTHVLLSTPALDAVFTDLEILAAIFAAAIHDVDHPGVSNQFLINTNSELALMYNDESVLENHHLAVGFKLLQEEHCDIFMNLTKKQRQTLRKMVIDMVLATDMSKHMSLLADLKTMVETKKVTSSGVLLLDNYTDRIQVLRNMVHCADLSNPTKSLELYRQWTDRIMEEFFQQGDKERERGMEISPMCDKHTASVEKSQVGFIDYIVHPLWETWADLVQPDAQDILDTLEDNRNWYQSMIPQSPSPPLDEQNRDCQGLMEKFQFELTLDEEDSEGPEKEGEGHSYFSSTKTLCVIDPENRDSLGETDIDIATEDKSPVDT
row,Structure (SMILES),IC50 [pM]
1,"CCc1nc2c(cnn2CC)c(NC2CCOCC2)c1CNC(=O)CCc1ccc(C(=O)NCc2c(CC)nc3c(cnn3CC)c2NC2CCOCC2)cc1 [Example 1, N-{[1,6-diethyl-4-(tetrahydro-2H-pyran-4-ylamino)-1H-pyrazolo[3,4-b]pyridin-5-yl]methyl}-4-[3-({[1,6-diethyl-4-(tetrahydro-2H-pyran-4-ylamino)-1H-pyrazolo[3,4-b]pyridin-5-yl]methyl}amino)-3-oxopropyl]benzamide]",15.8 to 100
2,"CCc1nc2c(cnn2CC)c(NC2CCOCC2)c1CNC(=O)CCCC(=O)NCc1c(CC)nc2c(cnn2CC)c1NC1CCOCC1 [Example 2, N,N′-bis{[1,6-diethyl-4-(tetrahydro-2H-pyran-4-ylamino)-1H-pyrazolo[3,4-b]pyridin-5-yl]methyl}pentanediamide]",126 to 1000
3,"CCc1nc2c(cnn2CC)c(NC2CCOCC2)c1CNC(=O)CC(C)(C)CC(=O)NCc1c(CC)nc2c(cnn2CC)c1NC1CCOCC1 [Example 3, N,N′-bis{[1,6-diethyl-4-(tetrahydro-2H-pyran-4-ylamino)-1H-pyrazolo[3,4-b]pyridin-5-yl]methyl}-3,3-dimethylpentanediamide]",15.8 to 100
4,"CCc1nc2c(cnn2CC)c(NC2CCOCC2)c1CNC(=O)c1ccc(Cc2ccc(C(=O)NCc3c(CC)nc4c(cnn4CC)c3NC3CCOCC3)cc2)cc1 [Example 5, 4,4′-methanediylbis(N-{[1,6-diethyl-4-(tetrahydro-2H-pyran-4-ylamino)-1H-pyrazolo[3,4-b]pyridin-5-yl]methyl}benzamide)]",15.8 to 100
5,"CCc1nc2c(cnn2CC)c(NC2CCOCC2)c1CNC(=O)Cc1ccc(CC(=O)NCc2c(CC)nc3c(cnn3CC)c2NC2CCOCC2)cc1 [Example 6, 2,2′-benzene-1,4-diylbis(N-{[1,6-diethyl-4-(tetrahydro-2H-pyran-4-ylamino)-1H-pyrazolo[3,4-b]pyridin-5-yl]methyl}acetamide)]",126 to 1000
6,"CCc1nc2c(cnn2CC)c(NC2CCOCC2)c1CNC(=O)CCc1ccccc1C(=O)NCc1c(CC)nc2c(cnn2CC)c1NC1CCOCC1 [Example 7, N-{[1,6-diethyl-4-(tetrahydro-2H-pyran-4-ylamino)-1H-pyrazolo[3,4-b]pyridin-5-yl]methyl}-2-[3-({[1,6-diethyl-4-(tetrahydro-2H-pyran-4-ylamino)-1H-pyrazolo[3,4-b]pyridin-5-yl]methyl}amino)-3-oxopropyl]benzamide]",15.8 to 100
7,"CCc1nc2c(cnn2CC)c(NC2CCOCC2)c1CNC(=O)Cc1cccc(CC(=O)NCc2c(CC)nc3c(cnn3CC)c2NC2CCOCC2)c1 [Example 8, 2,2′-benzene-1,3-diylbis(N-{[1,6-diethyl-4-(tetrahydro-2H-pyran-4-ylamino)-1H-pyrazolo[3,4-b]pyridin-5-yl]methyl}acetamide)]",126 to 1000
8,"CCc1nc2c(cnn2CC)c(NC2CCOCC2)c1CNC(=O)COCC(=O)NCc1c(CC)nc2c(cnn2CC)c1NC1CCOCC1 [Example 9, 2,2′-oxybis(N-{[1,6-diethyl-4-(tetrahydro-2H-pyran-4-ylamino)-1H-pyrazolo[3,4-b]pyridin-5-yl]methyl}acetamide)]",126 to 1000
9,"CCc1nc2c(cnn2CC)c(NC2CCN(C(N)=O)CC2)c1CNC(=O)C1CCC(C(=O)NCc2c(CC)nc3c(cnn3CC)c2NC2CCN(C(N)=O)CC2)CC1 (stereo not shown) [Example 11, N,N′-bis[(4-{[1-(aminocarbonyl)-4-piperidinyl]amino}-1,6-diethyl-1H-pyrazolo[3,4-b]pyridin-5-yl)methyl]-1,4-cyclohexanedicarboxamide trifluoroacetate]",15.8 to 100
10,"CCc1nc2c(cnn2CC)c(NC2CCN(C(N)=O)CC2)c1CNC(=O)CS(=O)(=O)CC(=O)NCc1c(CC)nc2c(cnn2CC)c1NC1CCN(C(N)=O)CC1 [Example 12, 4,4′-{sulfonylbis[(1-oxo-2,1-ethanediyl)iminomethanediyl(1,6-diethyl-1H-pyrazolo[3,4-b]pyridine-5,4-diyl)imino]}di(1-piperidinecarboxamide) trifluoroacetate]",15.8 to 100

# Results, then the molecule that gave them:
row,IC50 [pM],Structure (SMILES)
1,126 to 1000,"CCc1nc2c(cnn2CC)c(NC2CCN(C(N)=O)CC2)c1CNC(=O)Cc1cccc(C(=O)NCc2c(CC)nc3c(cnn3CC)c2NC2CCN(C(N)=O)CC2)c1 [Example 13, 4-({5-[({[3-({[(4-{[1-(aminocarbonyl)-4-piperidinyl]amino}-1,6-diethyl-1H-pyrazolo[3,4-b]pyridin-5-yl)methyl]amino}carbonyl)phenyl]acetyl}amino)methyl]-1,6-diethyl-1H-pyrazolo[3,4-b]pyridin-4-yl}amino)-1-piperidinecarboxamide trifluoroacetate]"
2,15.8 to 100,"CCc1nc2c(cnn2CC)c(NC2CCN(C(N)=O)CC2)c1CNC(=O)CCc1ccc(C(=O)NCc2c(CC)nc3c(cnn3CC)c2NC2CCN(C(N)=O)CC2)cc1 [Example 14, 4-({5-[({3-[4-({[(4-{[1-(aminocarbonyl)-4-piperidinyl]amino}-1,6-diethyl-1H-pyrazolo[3,4-b]pyridin-5-yl)methyl]amino}carbonyl)phenyl]propanoyl}amino)methyl]-1,6-diethyl-1H-pyrazolo[3,4-b]pyridin-4-yl}amino)-1-piperidinecarboxamide trifluoroacetate]"
3,15.8 to 100,"CCc1nc2c(cnn2CC)c(NC2CCN(C(N)=O)CC2)c1CNC(=O)Cc1ccc(C(=O)NCc2c(CC)nc3c(cnn3CC)c2NC2CCN(C(N)=O)CC2)cc1 [Example 15, 4-({5-[({[4-({[(4-{[1-(aminocarbonyl)-4-piperidinyl]amino}-1,6-diethyl-1H-pyrazolo[3,4-b]pyridin-5-yl)methyl]amino}carbonyl)phenyl]acetyl}amino)methyl]-1,6-diethyl-1H-pyrazolo[3,4-b]pyridin-4-yl}amino)-1-piperidinecarboxamide trifluoroacetate]"
4,15.8 to 100,"CCc1nc2c(cnn2CC)c(NC2CCN(C(N)=O)CC2)c1CNC(=O)COc1ccccc1C(=O)NCc1c(CC)nc2c(cnn2CC)c1NC1CCN(C(N)=O)CC1 [Example 16, 4-[(5-{[({[2-({[(4-{[1-(aminocarbonyl)-4-piperidinyl]amino}-1,6-diethyl-1H-pyrazolo[3,4-b]pyridin-5-yl)methyl]amino}carbonyl)phenyl]oxy}acetyl)amino]methyl}-1,6-diethyl-1H-pyrazolo[3,4-b]pyridin-4-yl)amino]-1-piperidinecarboxamide trifluoroacetate]"
5,126 to 1000,"CCc1nc2c(cnn2CC)c(NC2CCN(C(N)=O)CC2)c1CNC(=O)CCC(=O)NCc1c(CC)nc2c(cnn2CC)c1NC1CCN(C(N)=O)CC1 [Example 17, N,N′-bis[(4-{[1-(aminocarbonyl)-4-piperidinyl]amino}-1,6-diethyl-1H-pyrazolo[3,4-b]pyridin-5-yl)methyl]butanediamide trifluoroacetate]"
6,15.8 to 100,"CCc1nc2c(cnn2CC)c(NC2CCN(C(N)=O)CC2)c1CNC(=O)c1ccc(Cc2ccc(C(=O)NCc3c(CC)nc4c(cnn4CC)c3NC3CCN(C(N)=O)CC3)cc2)cc1 [Example 18, 4,4′-{methanediylbis[benzene-4,1-diyl(oxomethanediyl)iminomethanediyl(1,6-diethyl-1H-pyrazolo[3,4-b]pyridine-5,4-diyl)imino]}di(1-piperidinecarboxamide) trifluoroacetate]"

# Source: US20090326003A1, “PYRAZOLO (3, 4-B) PYRIDINE DERIVATIVES AS PDE4 INHIBITORS” (priority 2006, published 2009)
